The record followed here is patent US4241064A, “9H-Pyrido[3,4-b]indole derivatives” (Nippon Shinyaku Co. Ltd., priority 1978, dated 1980).

One test has as its target xanthine-oxidase (Bos taurus, UniProt P80457). As to the kind of experiment: xanthine-oxidase inhibitory activity (pre-incubation 5 min, then 10 μM xanthine; Kalker). The test is classed as biochemical. Particulars: Table I; phosphate buffer pH 7.5, 10 μM xanthine; read-out: IC50 (xanthine-oxidase inhibition) (converted). The source says: The foregoing compounds have the property of inhibiting the enzyme xanthine-oxidase. As is known, xanthine-oxidase inhibitors improve hyperuricacidemia by suppressing the formation of uric acid and, as such, find use as therapeutic and prophylactic agents in the treatment of gout, calculus in the urinary organ, tissue degeneration of the circulatory system, and the like. The xanthine-oxidase inhibitory activity is expressed in terms of the concentration of the agent at which a 50% inhibition of xanthine-oxidase activity is observed (IC50). This can be readily measured pre-incubation of test specimens at varying concentrations in phosphate buffer (pH 7.5) for 5 minutes, then adding 10 μM of xanthine, measuring the enzyme activity (Kalker), and comparing the assay result with the activity of a control to determine the percent inhibition. (The IC50 value being derived from a plot of concentration versus percent inhibition).
According to the present invention, commercial picrasma wood, dry pulverized picrasma wood or, preferably, the dry pulverized powder of its heart wood, is extracted with a polar organic solvent such as water or methanol and the extract is then concentrated to yield a whole picrasma extract. This extract is then fractionated as for example by Sephadex LH or silica gel chromatography. The fractions are assayed for xanthine-oxidase inhibitory activity and the active fraction this then purified as by recrystallization.

The subject of test [1] is Ehrlich ascites cells. As to the kind of experiment: survival of mice transplanted with Ehrlich ascites cells, i.p. dosing for 7 consecutive days (potentiation of mitomycin C). The test is classed as in vivo, ddY mice. The following applies: for Survival Rate (%): i.p. 7 days, compound 1 50 mg/kg/day, mitomycin C 0.5 mg/kg/day.
Procedure: (§1) Thus, ddY mice (male, body weights ca 18 g) were reared for a week and 1×10^6 Ehrlich ascites cells/animal were intraperitoneally transplanted. After 24 hours, mitomycin C or/and compound 1 were administered intraperitoneally for 7 consecutive days.
Test [2] concerns Ehrlich ascites cells. The following applies: single i.p. at day 6, mitomycin C 1 mg/kg, compound 1 50 mg/kg.
Procedure: as §1

The structures appear in SMILES notation. Like-named read-outs stand apart in the source and are kept apart here.

xanthine-oxidase, sequence (P80457 whole entry): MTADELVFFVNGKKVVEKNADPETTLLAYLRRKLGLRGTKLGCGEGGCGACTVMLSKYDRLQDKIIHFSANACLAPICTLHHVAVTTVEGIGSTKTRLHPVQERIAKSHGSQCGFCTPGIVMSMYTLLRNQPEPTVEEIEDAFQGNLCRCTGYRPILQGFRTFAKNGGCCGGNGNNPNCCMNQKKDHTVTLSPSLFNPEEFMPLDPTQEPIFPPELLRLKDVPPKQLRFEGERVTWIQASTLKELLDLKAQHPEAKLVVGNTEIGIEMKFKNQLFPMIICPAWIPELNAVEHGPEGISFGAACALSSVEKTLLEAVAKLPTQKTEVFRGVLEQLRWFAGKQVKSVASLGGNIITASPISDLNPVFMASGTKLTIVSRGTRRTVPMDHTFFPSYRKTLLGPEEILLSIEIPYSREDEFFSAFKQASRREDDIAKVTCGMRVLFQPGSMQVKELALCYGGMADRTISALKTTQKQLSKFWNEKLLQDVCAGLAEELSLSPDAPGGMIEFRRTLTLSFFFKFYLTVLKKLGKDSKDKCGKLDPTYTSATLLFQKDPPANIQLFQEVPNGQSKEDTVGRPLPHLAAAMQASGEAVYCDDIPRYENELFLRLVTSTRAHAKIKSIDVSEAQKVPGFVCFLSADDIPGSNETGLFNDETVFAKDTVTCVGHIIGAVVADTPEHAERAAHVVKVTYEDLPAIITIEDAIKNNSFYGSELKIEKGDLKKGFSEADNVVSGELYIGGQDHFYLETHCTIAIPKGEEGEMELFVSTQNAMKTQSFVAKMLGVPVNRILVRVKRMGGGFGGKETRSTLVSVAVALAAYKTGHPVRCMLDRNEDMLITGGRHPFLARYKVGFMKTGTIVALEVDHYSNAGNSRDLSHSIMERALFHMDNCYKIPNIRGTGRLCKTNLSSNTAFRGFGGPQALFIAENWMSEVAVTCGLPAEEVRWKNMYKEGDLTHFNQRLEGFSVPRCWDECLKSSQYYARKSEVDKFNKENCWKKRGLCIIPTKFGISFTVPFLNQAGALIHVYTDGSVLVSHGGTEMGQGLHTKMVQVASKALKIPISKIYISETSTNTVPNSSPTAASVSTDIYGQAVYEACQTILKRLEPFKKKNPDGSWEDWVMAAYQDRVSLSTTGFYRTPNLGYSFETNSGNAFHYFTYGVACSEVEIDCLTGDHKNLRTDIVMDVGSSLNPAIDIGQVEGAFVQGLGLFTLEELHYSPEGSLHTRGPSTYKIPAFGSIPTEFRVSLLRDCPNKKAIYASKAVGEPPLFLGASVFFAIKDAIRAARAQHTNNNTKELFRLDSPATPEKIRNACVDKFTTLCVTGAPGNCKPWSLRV

As a reminder, the IC50 is the concentration at which inhibition is half-maximal. For the compound `O=Cc1ncc(O)c2c1[nH]c1ccccc12` [Compound 1, 1-formyl-4-hydroxy-9H-pyrido[3,4-b]indole], the IC50 on xanthine-oxidase was 0.00306 µM. Also, the “Survival Rate (%)” value in the test with Ehrlich ascites cells [1] (Day 16) is given as 100%; in the test on Ehrlich ascites cells [1] (Day 17), 90%; in the test on Ehrlich ascites cells [1] (Day 18), 80%; with Ehrlich ascites cells [1] (Day 19) it was 80%; with Ehrlich ascites cells [1] (Day 20) it was 70%; with Ehrlich ascites cells [1] (Day 21), 70%. The “Survival Rate (%)” value was 40% in the test on Ehrlich ascites cells [1] (Day 22); 30% with Ehrlich ascites cells [1] (Day 23); 10% in the test on Ehrlich ascites cells [1] (Day 24); 10% with Ehrlich ascites cells [1] (Day 25); 10% in the test with Ehrlich ascites cells [1] (Day 26). In addition, the “potentiation of the antitumor activity of mitomycin C and similar antibiotics” value with Ehrlich ascites cells [1] (result in words, conventional laboratory models) is on record as “significant potentiation of the antitumor activity of mitomycin C”.

In the case of `OCc1nccc2c1[nH]c1ccccc12` [H H CH2 OH, 1-Hydroxymethyl-9H-Pyrido[3,4-b]Indole], the IC50 at xanthine-oxidase is 21.7 µM.

Turning to `O=Cc1nccc2c1[nH]c1ccccc12` [H H CHO], the IC50 at xanthine-oxidase is 4.08 µM.

With `COC(=O)c1nccc2c1[nH]c1ccccc12` [H H COOCH3, 1-carbomethoxy-9H-pyrido[3,4-b]indole], the IC50 on xanthine-oxidase is 177 µM.

As to `O=Cc1nc(O)cc2c1[nH]c1ccccc12` [H OH CHO, 1-Formyl-3-Hydroxy-9H-Pyrido[3,4-b]Indole], the concentration for half-maximal inhibition (IC50) at xanthine-oxidase was 1.79 µM.

With `CO[C@@]12[C@H](COC(N)=O)C3=C(C(=O)C(C)=C(N)C3=O)N1C[C@@H]1N[C@@H]12` [Mitomycin, mitomycin C], the “Survival Rate (%)” value in the test on Ehrlich ascites cells [1] (Day 16), with Ehrlich ascites cells [1] (Day 17), with Ehrlich ascites cells [1] (Day 18), in the test with Ehrlich ascites cells [1] (Day 19), in the test on Ehrlich ascites cells [1] (Day 20) and with Ehrlich ascites cells [1] (Day 21) was 100% in each case. The “Survival Rate (%)” value in the test on Ehrlich ascites cells [1] (Day 22), with Ehrlich ascites cells [1] (Day 23), in the test on Ehrlich ascites cells [1] (Day 24), with Ehrlich ascites cells [1] (Day 25), with Ehrlich ascites cells [1] (Day 26) and in the test on Ehrlich ascites cells [1] (Day 27) was 90% throughout. For the same compound, the “Survival Rate (%)” value was found to be 80% with Ehrlich ascites cells [1] (Day 28); 70% with Ehrlich ascites cells [1] (Day 29); 70% in the test with Ehrlich ascites cells [1] (Day 30); 70% in the test with Ehrlich ascites cells [1] (Day 33); 60% with Ehrlich ascites cells [1] (Day 34); 60% with Ehrlich ascites cells [1] (Day 38). The “Survival Rate (%)” value with Ehrlich ascites cells [1] (Day 39) is on record as 50%; in the test on Ehrlich ascites cells [1] (Day 48), 50%; in the test on Ehrlich ascites cells [1] (Day 49) it was 40%; in the test on Ehrlich ascites cells [1] (Day 52), 40%; in the test with Ehrlich ascites cells [1] (Day 53), 30%; with Ehrlich ascites cells [1] (Day 56), 30%. For the same compound, the “Survival Rate (%)” value in the test on Ehrlich ascites cells [1] (Day 57), in the test on Ehrlich ascites cells [1] (Day 58), with Ehrlich ascites cells [1] (Day 59) and with Ehrlich ascites cells [1] (Day 60 after transplantation) was 20% each time. For the same compound, the “No. Surviving” value in the test on Ehrlich ascites cells [2] (Day 10), in the test with Ehrlich ascites cells [2] (Day 11), with Ehrlich ascites cells [2] (Day 12), in the test with Ehrlich ascites cells [2] (Day 13), in the test with Ehrlich ascites cells [2] (Day 14) and with Ehrlich ascites cells [2] (Day 15) was 7 throughout. The “No. Surviving” value amounted to 7 with Ehrlich ascites cells [2] (Day 16); 7 with Ehrlich ascites cells [2] (Day 17); 5 in the test on Ehrlich ascites cells [2] (Day 18); 5 in the test on Ehrlich ascites cells [2] (Day 19); 4 in the test with Ehrlich ascites cells [2] (Day 20); 4 with Ehrlich ascites cells [2] (Day 21). The “No. Surviving” value with Ehrlich ascites cells [2] (Day 22) stood at 4; in the test with Ehrlich ascites cells [2] (Day 23), 2; with Ehrlich ascites cells [2] (Day 24), 2; with Ehrlich ascites cells [2] (Day 25) it was 1; in the test with Ehrlich ascites cells [2] (Day 26) it was 1; with Ehrlich ascites cells [2] (Day 27) it was 1. Also, in the test with Ehrlich ascites cells [2] (Day 28), the “No. Surviving” value is reported as 1.

As to `CC(=O)Oc1cnc(C=O)c2[nH]c3ccccc3c12` [OCOCH3 H CHO, 1-Formyl-4-Acetoxy-9H-Pyrido[3,4-b]Indole], on xanthine-oxidase, the IC50 is 0.00669 µM.

`OCc1ncc(O)c2c1[nH]c1ccccc12` [OH H CH2 OH, 1-Hydroxymethyl-4-Hydroxy-9H-pyrido[3,4-b]Indole]: the IC50 on xanthine-oxidase is 0.336 µM.

Take `COC(=O)c1ncc(O)c2c1[nH]c1ccccc12` [OH H COOCH3, 1-Carbomethoxy-4-Hydroxy-9H-Pyrido[3,4-b]Indole]: on xanthine-oxidase, the IC50 was 78.4 µM.

Regarding `O=C(O)c1ncc(O)c2c1[nH]c1ccccc12` [OH H COOH, 1-Carboxy-4-Hydroxy-9H-Pyrido[3,4-b]Indole], the half-maximal inhibitory concentration (IC50) on xanthine-oxidase is 1.1 µM.
